Activity calls are given as the source filed them. The calls are words filed in the database; no cut-off is given here.
Tests used:
[1] = system: 786-0; test: Metal chelating activity assessed as Fe2+ chelation in human 786-0 cells assessed as intracellular ferrous ion level at 100 uM by FerroOrange fluorescent probe based assay; assay type: cell-based
[2] = Metal chelating activity assessed as Fe2+ chelation assessed as absorbance peak at 430 nm by UV-vis spectroscopy; details: dose 1.0 µM
[3] = Microsomal stability in human liver microsomes assessed as hepatic clearance at 1 uM by LC-MS/MS analysis; assay type: ADME, Microsome
[4] = Microsomal stability in human liver microsomes assessed as hepatic extraction ratio at 1 uM by LC-MS/MS analysis; assay type: ADME, Microsome; details: read-out: ERH
[5] = Microsomal stability in rat liver microsomes assessed as hepatic extraction ratio at 1 uM by LC-MS/MS analysis; assay type: ADME, Microsome; details: read-out: ERH

SMILES	Activity [1]	Activity [2]	CLhep predicted at 1 µM [3] [mL/min/kg]	hepatic extraction ratio at 1 µM [4]	hepatic extraction ratio at 1 µM [5]
CC(=O)N(O)CCCCCNC(=O)CCC(=O)N(O)CCCCCNC(=O)CCC(=O)N(O)CCCCCN	Active	Active			
C[C@]12CC[C@H]3[C@@H](CCC4=CC(=O)CC[C@@]43C)[C@@H]1CC[C@@H]2O [TESTOSTERONE]			19.3	0.935	0.994

Reference: ChEMBL document CHEMBL6120996, “Discovery and optimization of 1,2,4-triazole derivatives as novel ferroptosis inhibitors” (Eur J Med Chem, 2025)
